In article PMC6835763, “Influence of Short Cationic Lipopeptides with Fatty Acids of Different Chain Lengths on Bacterial Biofilms Formed on Polystyrene and Hydrogel Surfaces” (Pharmaceutics, 2019):
Where two headings read alike, the source gives them in different places. Where a SMILES comes first, the peptide text is derived from it. Bridges are numbered along the chain shown (N, C = ends). Roman numbers before positions name the chains, in order. The star is where a group is joined. Palmitoyl = CCCCCCCCCCCCCCCC(=O)*; Myristoyl = CCCCCCCCCCCCCC(=O)*; Lauroyl = CCCCCCCCCCCC(=O)*

What was measured:
Format in all cases: cell-based
[1] = tested on: Staphylococcus epidermidis ATCC 14990
Method: (§1) The biofilms of bacteria associated with the biofilm-related infections were cultured on 96-well flat bottom PS and on CL placed in 24-well plates. The bacteria at initial inoculums of 5 × 10^8 CFU/mL in MHB II were added to the plates and incubated at 37 °C under aerobic conditions. After 24 h of incubation, all cultures were rinsed three times with PBS and fresh medium was added. Subsequently, the obtained biofilm cultures were exposed to solutions of antimicrobials applied at graded concentrations ranging from 1 to 512 μg/mL for 24 h at 37 °C. The anti-biofilm activity of antimicrobials was visualized by resazurin (final concentration per sample = 0.005%) in the same way as in the MBFIC assay. All experiments were performed in triplicate and included growth controls (positive control: bacterial suspension without antimicrobials) and sterility controls (negative controls: sterile MBH II medium).

[2] = tested on: Proteus mirabilis PCM 543
Method: as §1

[3] = tested on: Enterococcus faecalis ATCC 29212
Method: as §1

[4] = tested on: Staphylococcus aureus ATCC 25923
Method: as §1

[5] = tested on: Pseudomonas aeruginosa ATCC 9027
Method: as §1

[6] = tested on: Escherichia coli ATCC 25922
Method: as §1

gram-positive strains = test: MIC, broth microdilution, range over strains; settings: range over the gram-positive strains, liquid culture
Method: The MICs of synthetic lipopeptides and conventional antimicrobials were determined using the broth microdilution method according to the Clinical and Laboratory Standard Institute (CLSI) guidelines on reference strains. […] The PS were incubated under aerobic conditions at 37 °C for 18 h. The MIC (μg/mL) was assumed as the lowest concentration of the compound that inhibited the growth of the microorganisms. All experiments were performed in triplicate and included the growth and sterility controls.

[7] = 24 h biofilm on 96-well flat bottom PS, 5 × 10^8 CFU/mL in MHB II, exposure 1–512 μg/mL for 24 h at 37 °C, resazurin, triplicate
[8] = 24 h biofilm on contact lenses (CL) in 24-well plates, 5 × 10^8 CFU/mL in MHB II, exposure 1–512 μg/mL for 24 h at 37 °C, resazurin, triplicate

| Compound | MBEC S. epidermidis, CL ([1]; ATCC 14990, 24 h) [µg/mL] | MBEC P. mirabilis, CL ([2]; PCM 543, 24 h) | MBEC E. faecalis, CL ([3]; ATCC 29212, 24 h) | MBEC S. aureus, CL ([4]; ATCC 25923, 24 h) | MBEC P. aeruginosa, CL ([5]; ATCC 9027, 24 h) | MBEC E. coli, CL ([6]; ATCC 25922, 24 h) | further results |
| --- | --- | --- | --- | --- | --- | --- | --- |
| CCCCCCCCCCCC(=O)N[C@@H](CCCCN)C(=O)N[C@@H](CCCCN)C(=O)N[C@@H](CSSC[C@H](NC(=O)[C@H](CCCCN)NC(=O)[C@H](CCCCN)NC(=O)CCCCCCCCCCC)C(N)=O)C(N)=O [Lipopeptide 1, C12-KKC-NH2] (I: Lauroyl-Lys-Lys-Cys-NH2 / II: Lauroyl-Lys-Lys-Cys-NH2; disulfide I:3-II:3) | 128 | >512/>512 μg/mL | 128 µg/mL | 256 µg/mL | 256 µg/mL | 256/256 μg/mL | concentrations inhibiting growth of gram-positive strains (MIC range) (gram-positive strains): 2 to 8 µg/mL |
| CCCCCCCCCCCCCC(=O)N[C@@H](CCCCN)C(=O)N[C@@H](CCCCN)C(=O)N[C@@H](CSSC[C@H](NC(=O)[C@H](CCCCN)NC(=O)[C@H](CCCCN)NC(=O)CCCCCCCCCCCCC)C(N)=O)C(N)=O [Lipopeptide 3, C14-KKC-NH2] (I: Myristoyl-Lys-Lys-Cys-NH2 / II: Myristoyl-Lys-Lys-Cys-NH2; disulfide I:3-II:3) | 512 | 512/>512 μg/mL | 256/256 μg/mL | 128/128 μg/mL | > 512 µg/mL | 512/512 μg/mL | – |
| CCCCCCCCCCCCCC(=O)N[C@@H](CCCCN)C(=O)N[C@@H](CCCNC(=N)N)C(N)=O [Lipopeptide 4, C14-KR-NH2] (Myristoyl-Lys-Arg-NH2) | 32 | >512/>512 μg/mL | 256 µg/mL | 512 µg/mL | >512/>512 μg/mL | 256 µg/mL | – |
| CCCCCCCCCCCCCCCC(=O)N[C@@H](CCCCN)C(=O)NCC(=O)N[C@@H](CCCCN)C(N)=O [Lipopeptide 5, C16-KGK-NH2] (Palmitoyl-Lys-Gly-Lys-NH2) | 128 | >512/>512 μg/mL | 32 µg/mL | 512 µg/mL | 256 µg/mL | 64 µg/mL | concentrations eliminating the EC biofilm (MBEC range) ([6]; ATCC 25922, 24 h): 64 to 128 µg/mL |
| CCCCCCCCCCCCCCCC(=O)N[C@@H](CCCCN)C(=O)N[C@@H](CCCCN)C(=O)N[C@@H](CCCCN)C(N)=O [Lipopeptide 7, C16-KKK-NH2] | 64 | 512/>512 μg/mL | 16 µg/mL | 256 µg/mL | 512/>512 μg/mL | 128 µg/mL | concentrations eliminating the EC biofilm (MBEC range) ([6]; ATCC 25922, 24 h): 64 to 128 µg/mL |
| CCCCCCCCCCCCCCCC(=O)N[C@@H](CCCCN)C(=O)N[C@@H](CCCNC(=N)N)C(N)=O [Lipopeptide 8, C16-KR-NH2] (Palmitoyl-Lys-Arg-NH2) | 32 | > 512 µg/mL | 64/64 μg/mL | 128 µg/mL | 32 µg/mL | 128 µg/mL | – |
| (C10)2-KKKK-NH2 [Lipopeptide 9] | – | – | – | – | – | – | MBEC S. epidermidis, PS [1, 7]: 16 µg/mL; MBEC S. epidermidis, CL [1, 8]: 64 µg/mL; MBEC P. mirabilis, PS [2, 7]: >512/>512 μg/mL; MBEC P. mirabilis, CL [2, 8]: >512/>512 μg/mL; MBEC E. faecalis, PS [3, 7]: 32 µg/mL; MBEC E. faecalis, CL [3, 8]: 128 µg/mL; MBEC S. aureus, PS [4, 7]: 64 µg/mL; MBEC S. aureus, CL [4, 8]: 128 µg/mL; MBEC P. aeruginosa, PS [5, 7]: 512 µg/mL; MBEC P. aeruginosa, CL [5, 8]: 256 µg/mL; MBEC E. coli, PS [6, 7]: 64 µg/mL; MBEC E. coli, CL [6, 8]: 128 µg/mL; concentrations eliminating the EC biofilm (MBEC range) ([6]; range over PS and CL): 64 to 128 µg/mL |
